“And” between values parts separate entries of the source, which are not always exact repeats. Equal values may be shown once.
Assays:
[1] = tested on: HR+, HER2- T47D breast cancer spheroids; assay: Multicellular tumor spheroid growth inhibition (SGI), T47D; type: cell-based, human
Protocol: The purpose of this example was to evaluate the combination effect of PF-07220060 and endocrine therapy in multicellular tumor spheroid growth inhibition (SGI). To model the characteristics and cellular behavior of human tumors, the activity of PF-07220060 was evaluated in three dimensional MCTS models of HR+ breast cancer and AR+ prostate cancer following PF-07220060 treatment as a single agent and in combination with fulvestrant • 1) in HR+, HER2-T47D breast cancer spheroids. • 2) in HR+, HER2+BT474 breast cancer spheroids, • 3) in BT474 spheroids, and • 4) in AR+ prostate carcinoma cell line (LNCaP) prostate cancer spheroids. Spheroids were treated with increasing concentrations of 100, 300, or 1000 nM PF-07220060 and compared to palbociclib at the clinically relevant concentration of 30 nM. Single agent PF-07220060 inhibited spheroid growth in a dose-dependent manner, with highest efficacy (86% SGI over the duration of treatment with 1000 nM) shown in the T47D BC spheroid model (Table 1). Combining 100 nM PF-07220060 with 1 nM fulvestrant in T47D cells increased SGI to 96% compared to either single agent alone (57 to 67% SGI with 100 nM PF-07220060 or 79% SGI with fulvestrant) (Table 1). BT474 spheroids were relatively less sensitive to PF-07220060 resulting in 52% SGI at 1000 nM.

[2] = Phase 1/1b clinical trial: safety (DLTs, treatment-emergent adverse events); type: in vivo, human
Protocol: As used herein, “dose limiting toxicity” (DLT) refers to the dosage of PF-07220060 that is contraindicative of a further increase in dosage.
An ongoing open-label, nonrandomized, dose-finding Phase 1/1b Study investigating the safety, tolerability, PK, and PD of PF-07220060 administered as a single agent and when administered in combination with endocrine therapy.
Adverse events of the patients dosed with PF-07220060 in the Phase 1/1b clinical trial were evaluated using the National Cancer Institute Common Terminology Criteria for Adverse Events (NCI CTCAE) version 4.03.

[3] = tested on: advanced or metastatic solid tumors; assay: Phase 1/1b clinical trial: tumor response (best overall response, RECIST 1.1); type: in vivo, human
From the text: The present therapy may result in a complete response (CR), partial response (PR), progressive disease (PD), or stable disease (SD) in patients. Bioimaging can be used to evaluate the level of response to the therapy. Cytology and histology may also be used as needed (e.g., to locate any residual lesions). In some embodiments, the various levels of response can be evaluated in accordance with Table 1 below.
• For Part 1: participant must have evaluable lesion (including skin or bone lesion only). • For Part 2B and Part 2C: participants must have measurable disease as defined per RECIST (Response Evaluation Criteria in Solid Tumors) version 1.1 (Eisenhauer et al., European Journal of Cancer, 2009, 45 (2): 228-47). Tumor lesions previously irradiated or subjected to locoregional therapy will only be deemed measurable if progression at the treated site after completion of therapy is clearly documented.

[4] = 66 participants dosed in Part 1A, 1B, 1C and 1D
[5] = Part 1D, single agent 400 mg BID food cohort
[6] = Part 1D, single agent 400 mg BID food cohort, 6 participants
[7] = across all dose levels, by label
[8] = across all dose levels, Part 1A
[9] = any grade, all dose levels, Part 1A, 1B, 1C, by label
[10] = any grade, all dose levels, Part 1A, 1C, by label
[11] = overall, 66 participants dosed in Part 1
[12] = Part 1D food effect cohort (n = 6)
[13] = Total, all cohorts (27 patients)
[14] = Total, all cohorts (35 patients)
[15] = confirmed best overall response, Part 1D food effect cohort (n = 6)
[16] = confirmed best overall response, Total Part 1A (single agent), 1B, 1C, 1B + 1C, by label
[17] = confirmed best overall response, Total, all cohorts (n = 70)

In the case of CC(C)n1c(C(C)(C)O)nc2c(F)cc(-c3nc(N[C@@H]4CCOC[C@H]4O)ncc3Cl)cc21 [PF-07220060, 1,5-anhydro-3-({5-chloro-4-[4-fluoro-2-(2-hydroxypropan-2-yl)-1-(propan-2-yl)-1H-benzimidazol-6-yl]pyrimidin-2-yl}amino)-2,3-dideoxy-D-threo-pentitol], the SGI ([1]; 100 nM single agent) is reported as 57% and 67%, the SGI ([1]; 300 nM single agent) is reported as 74% and the SGI ([1]; 1000 nM single agent) is reported as 86%. For the same molecule, the “participants with any treatment-related TEAE, %” value ([2]; 66 participants dosed in Part 1) was 81.8%, the “number of all-causality TEAEs” value [2, 4] was 375 and the “participants with all-causality TEAEs, %” value [2, 4] was 89.4%. The “diarrhoea, Grade 3 treatment-related TEAE” value ([2]; Part 1A) was 5.9%, the “thrombocytopenia, Grade 3 treatment-related TEAE” value ([2]; Part 1A) was 5.9% and the “participants with treatment-related TEAE, %” value ([2]; Part 1A (single agent, 34), 1B (13), 1C (13), by label) was 79.4%. For the same molecule, the “participants with Grade 5 all-causality TEAE (respiratory failure; unrelated to study drug)” value ([2]; Part 1A, 400 mg BID group) was “One”, the “Grade 4 / Grade 5 all-causality TEAEs” value ([2]; Part 1A, 1B, 1C, by label) was “No Grade 4 TEAEs were reported” and the “Grade 4 / Grade 5 treatment-related TEAEs” value ([2]; Part 1A, 1B, 1C, by label) was “no Grade 4 or Grade 5 treatment-related TEAEs reported”. For the same molecule, the “anaemia, Grade 3 treatment-related TEAE” value ([2]; Part 1A, 1B, 1C, by label) was 5.9%, the “leukopenia, Grade 3 treatment-related TEAE” value ([2]; Part 1A, 1B, 1C, by label) was 5.9% and the “neutropenia, Grade 3 treatment-related TEAE” value ([2]; Part 1A, 1B, 1C, by label) was 14.7%. For the same molecule, the “participants with Grade 3 treatment-related TEAEs, %” value ([2]; Part 1A, 1B, 1C, by label) was 26.5%, the “Grade 3, 4 or 5 treatment-related TEAEs” value [2, 5] was “No Grade 3, 4 nor 5 treatment-related TEAEs were reported” and the “Grade 3 or 5 TEAEs” value [2, 5] was “No Grade 3 or 5 TEAEs were reported”. The “diarrhoea, all-causality TEAE” value [2, 5] was 50.0%, the “diarrhoea, treatment-related TEAE” value [2, 5] was 50.0% and the “leukopenia, all-causality TEAE” value [2, 5] was 50.0%. For the same molecule, the “leukopenia, treatment-related TEAE” value [2, 5] was 50.0%, the “neutropenia, all-causality TEAE” value [2, 5] was 50.0% and the “neutropenia, treatment-related TEAE” value [2, 5] was 50.0%. For the same molecule, the “participants with Grade 4 all-causality TEAE (respiratory failure)” value [2, 5] was “One”, the “participants with TEAEs, %” value [2, 6] was 66.7% and the “participants with treatment-related TEAEs, %” value [2, 6] was 66.7%. The “anaemia, Grade 3 or higher (1A) / Grade 3 (1B, 1C) all-causality TEAE” value [2, 7] was 5.9%, the “leukopenia, Grade 3 or higher (1A) / Grade 3 (1B, 1C) all-causality TEAE” value [2, 7] was 5.9% and the “neutropenia, Grade 3 or higher (1A) / Grade 3 (1B, 1C) all-causality TEAE” value [2, 7] was 14.7%. For the same molecule, the “number of Grade 3 or higher (Part 1A) / Grade 3 (Part 1C) all-causality TEAEs” value [2, 7] was 15, the “COVID-19, Grade 3 or higher all-causality TEAE” value [2, 8] was 5.9% and the “aspartate aminotransferase increased, Grade 3 or higher all-causality TEAE” value [2, 8] was 5.9%. For the same molecule, the “diarrhoea, Grade 3 or higher all-causality TEAE” value [2, 8] was 5.9%, the “syncope, Grade 3 or higher all-causality TEAE” value [2, 8] was 5.9% and the “thrombocytopenia, Grade 3 or higher all-causality TEAE” value [2, 8] was 5.9%. The “participants with all-causality TEAEs, %” value ([2]; all dose levels, Part 1A (single agent, 34), 1B (13), 1C (13), by label) was 94.1%, the “aspartate aminotransferase increased, all-causality TEAE” value ([2]; any grade, all dose levels, Part 1A) was 20.6% and the “anaemia, all-causality TEAE” value [2, 9] was 35.3%. The “diarrhoea, all-causality TEAE” value [2, 9] was 35.3%, the “diarrhoea, treatment-related TEAE” value [2, 9] was 23.5% and the “fatigue, treatment-related TEAE” value [2, 9] was 11.8%. For the same molecule, the “leukopenia, all-causality TEAE” value [2, 9] was 35.3%, the “nausea, all-causality TEAE” value [2, 9] was 29.4% and the “nausea, treatment-related TEAE” value [2, 9] was 26.5%. For the same molecule, the “neutropenia, all-causality TEAE” value [2, 9] was 41.2%, the “neutropenia, treatment-related TEAE” value [2, 9] was 41.2% and the “vomiting, all-causality TEAE” value [2, 9] was 20.6%. The “anaemia, treatment-related TEAE” value [2, 10] was 29.4%, the “leukopenia, treatment-related TEAE” value [2, 10] was 29.4% and the “thrombocytopenia, treatment-related TEAE” value [2, 10] was 20.6%. For the same molecule, the “vomiting, treatment-related TEAE” value [2, 10] was 14.7%, the “participants who experienced DLTs, %” value ([2]; of the 55 evaluable participants, all cohorts, as of Sep. 2, 2022) was 7.3% and the “anemia, treatment-related TEAE” value [2, 11] was 21.2%. The “diarrhea, treatment-related TEAE” value [2, 11] was 33.3%, the “leukopenia, treatment-related TEAE” value [2, 11] was 30.3% and the “nausea, treatment-related TEAE” value [2, 11] was 27.3%. For the same molecule, the “neutropenia, treatment-related TEAE” value [2, 11] was 40.9%, the “participants with DLT of Grade 3 neutropenia” value ([2]; single agent 200 mg BID cohort) was “One” and the “participants with DLT of Grade 3 thrombocytopenia” value ([2]; single agent 500 mg BID cohort) was “Two”. The “Objective Response (CR + PR) for Patients without Breast Cancer, %” value ([3]; Part 1D food effect cohort (5 patients)) was “(20.0) %”, the “Disease Control (CR + PR + SD + Non-CR/Non-PD), %” value [3, 12] was “(50.0) %” and the “Objective Response (CR + PR), %” value [3, 12] was “(16.7) %”. The “Clinical Benefit Response, %” value ([3]; Patients with Breast Cancer (with Measurable Disease at Baseline), Total Part 1A (single agent), 1B, 1C, 1B + 1C, by label) was “(40.0) %”, the “Clinical Benefit Response, %” value ([3]; Patients with Breast Cancer (with Measurable Disease at Baseline), Total, all cohorts (27 patients)) was “(48.1) %” and the “Clinical Benefit Response, %” value ([3]; Patients with Breast Cancer, Total Part 1A (single agent), 1B, 1C, 1B + 1C, by label) was “(25.0) %”. The “Clinical Benefit Response, %” value ([3]; Patients with Breast Cancer, Total, all cohorts (35 patients)) was “(40.0) %”, the “Objective Response (CR + PR) for Patients with Breast Cancer (with Measurable Disease at Baseline), %” value [3, 13] was “(22.2) %” and the “Objective Response (CR + PR) for Patients with prior CDK4/6 inhibitor (with Measurable Disease at Baseline), %” value [3, 13] was “(22.2) %”. The “Objective Response (CR + PR) for Patients with Breast Cancer, %” value [3, 14] was “(17.1) %”, the “Objective Response (CR + PR) for Patients without Breast Cancer, %” value [3, 14] was “(2.9) %” and the “Disease Control (CR + PR + SD + Non-CR/Non-PD), %” value ([3]; Total, all cohorts (n = 70)) was “(65.7) %”. For the same molecule, the “Objective Response (CR + PR), %” value ([3]; Total, all cohorts (n = 70)) was “(10.0) %”, the “Disease Control (CR + PR + SD + Non-CR/Non-PD), %” value ([3]; Total, all cohorts (n = 70), listed as PF-06873600) was 65.7% and the “Clinical Benefit Response, %” value ([3]; all evaluable patients, Part 1D food effect cohort (n = 6)) was “(33.3) %”. For the same molecule, the “Clinical Benefit Response, %” value ([3]; all evaluable patients, Total Part 1A (single agent), 1B, 1C, 1B + 1C, by label) was “(26.3) %”, the “Clinical Benefit Response, %” value ([3]; all evaluable patients, Total, all cohorts (n = 70)) was “(34.3) %” and the “Non-CR/Non-PD, %” value [3, 15] was “(16.7) %”. The “Not evaluable (NE), %” value [3, 15] was “(16.7) %”, the “Partial response (PR), %” value [3, 15] was “(16.7) %” and the “Progressive disease (PD), %” value [3, 15] was “(33.3) %”. The “Stable disease (SD), %” value [3, 15] was “(16.7) %”, the “Non-CR/Non-PD, %” value [3, 16] was “(10.5) %” and the “Not evaluable (NE), %” value [3, 16] was “(23.7) %”. The “Progressive disease (PD), %” value [3, 16] was “(15.8) %”, the “Stable disease (SD), %” value [3, 16] was “(47.4) %” and the “Complete response (CR), %” value [3, 17] was “(1.4) %”. For the same molecule, the “Non-CR/Non-PD, %” value [3, 17] was “(11.4) %”, the “Not evaluable (NE), %” value [3, 17] was “(14.3) %” and the “Partial response (PR), %” value [3, 17] was “(8.6) %”. For the same molecule, the “Progressive disease (PD), %” value [3, 17] was “(18.6) %” and the “Stable disease (SD), %” value [3, 17] was “(44.3) %”.

Source: patent publication US20250041298A1, “CDK4 INHIBITOR FOR THE TREATMENT OF CANCER” (Pfizer Inc., priority 2021, published 2025)
